Consider four molecules from patent publication US11130780B2, “Inhibitors of growth factor activation enzymes” (Washington University, priority 2015, dated 2021).

What is called Km is the substrate concentration at which the rate is half of its maximum. One may read the pKi as the Ki on a negative log10 scale, so that one unit is a factor of ten.

For one test, the target named is T1, matriptase (Homo sapiens, UniProt Q9Y5Y6).
T1 construct: Charles Craik, UCSF (obtained from another laboratory)
T1 sequence (Q9Y5Y6 615-855 limits assumed): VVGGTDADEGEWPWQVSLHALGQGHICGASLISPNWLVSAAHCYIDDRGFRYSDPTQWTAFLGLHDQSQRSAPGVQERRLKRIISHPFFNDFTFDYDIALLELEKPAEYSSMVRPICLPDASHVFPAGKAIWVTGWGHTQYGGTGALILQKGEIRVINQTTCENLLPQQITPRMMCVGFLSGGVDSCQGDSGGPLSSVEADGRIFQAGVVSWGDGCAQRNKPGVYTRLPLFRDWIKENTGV
In words: Km determination of fluorogenic substrate with matriptase. It counts as biochemical. How it is done: (§1) In black 384 well plates (Corning #3575), 12.5 nM HGFA was mixed with various amounts of Boc-QLR-AMC and 1 nM matriptase and 0.3 nM hepsin were mixed with various amounts of Boc-QAR-AMC. Changes in fluorescence (excitation at 380 nm and emission at 460 nn) were measured at room temperature over time in a Biotek Synergy 2 plate reader (Winnoski, Vt.). Using plots of the mean reaction velocity versus substrate concentration and the Michaelis-Menten enzyme kinetics equation within GraphPad Prism version 6.04 for Windows (GraphPad Software, San Diego, Calif., www.graphpad.com), the reaction Vmax and subsequent Km for each of the substrates were determined.

Test [1] deals with T2, HGFA (Homo sapiens, UniProt Q04756).
T2 sequence (Q04756 408-655 limits assumed): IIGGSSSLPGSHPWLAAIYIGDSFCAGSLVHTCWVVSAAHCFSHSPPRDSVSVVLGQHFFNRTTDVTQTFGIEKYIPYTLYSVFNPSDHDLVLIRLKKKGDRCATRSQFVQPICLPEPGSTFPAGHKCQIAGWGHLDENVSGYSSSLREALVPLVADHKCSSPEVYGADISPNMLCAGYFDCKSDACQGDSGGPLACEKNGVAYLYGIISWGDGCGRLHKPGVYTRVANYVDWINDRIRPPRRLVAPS
T2 sequence (Q04756 373-407 partner limits assumed): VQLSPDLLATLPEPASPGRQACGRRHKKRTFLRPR
Put plainly: Kinetic parameters of ACC substrates (Table 11.4). It counts as biochemical. The source says: Results for MSP-MS profiling for HGFA substrate cleavage and specificity can be seen in FIG. 20 and Tables 11.1-11.4. IceLogo graphs can be seen in FIGS. 21A and 21B.

The target of test [2] is T3, HGFA (Homo sapiens, UniProt Q04756).
T3 construct: His6 tag (N); seven amino acid spacer and seven amino acid TEV cleavage site (N); Honey Bee melittin signal peptide (N); made in house; host or cells: High 5 insect cells (baculovirus; virus raised in Sf9)
T3 sequence (Q04756 373-655): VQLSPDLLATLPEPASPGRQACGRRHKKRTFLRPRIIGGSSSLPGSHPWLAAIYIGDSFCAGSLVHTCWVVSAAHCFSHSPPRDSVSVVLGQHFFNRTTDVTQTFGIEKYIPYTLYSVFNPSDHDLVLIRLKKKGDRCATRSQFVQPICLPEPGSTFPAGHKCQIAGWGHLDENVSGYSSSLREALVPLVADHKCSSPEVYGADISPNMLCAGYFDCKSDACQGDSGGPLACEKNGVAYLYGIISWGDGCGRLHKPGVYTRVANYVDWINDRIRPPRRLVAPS
Put plainly: Km determination of fluorogenic substrate with HGFA. The test is classed as biochemical. On the procedure:
as §1

Another test has as its system MDA-MB-231 cells. In words: MRC5-mediated migration and invasion of MDA-MB-231 cells through Matrigel. The test is classed as cell-based, human. Particulars: 1 μM, 24 hour. How it is done: MRC5 fibroblasts were plated in the bottom well of a Boyden chamber, and incubated overnight to condition the attractant media. The following day, MDA-MB-231 or T47D cells+/−inhibitors were plated above on Matrigel coated inserts (8.0 μm membrane inserts, 12-well; Corning 3422) and incubated in FBS media overnight. Inhibitors were added to fresh media and then cells were plated above on the inserts. The cells were fixed and stained at the 24 hour time point. The inserts were then removed and mounted on glass plates where the number of migrated cells were imaged and counted at 4 fields per membrane using a light microscope at 20×.

The target in a further test is Factor Xa (Homo sapiens, UniProt P00742). Put plainly: Chromogenic kinetic enzyme assay of Factor Xa. It counts as biochemical. The conditions noted are these: Table 6.2; headed Fluorogenic Assay; read-out: Factor Xa Ki. On the procedure: Inhibitors (11-pt serial dilutions, 0-20 μM final concentration) were serially diluted in DMSO (2% DMSO final concentration) and then mixed with recombinant thrombin (0.15 nM final concentration) or Factor Xa (0.35 nM final concentration) in TNC buffer (25 mM Tris, 150 mM NaCl, 5 mM CaCl2, 0.01% TRITON X-100, pH 8) using clear 384 well plates. […] Changes in absorbance at 405 nm were measured over time in a Biotek Synergy 2 plate (Winnoski, Vt.). Using GraphPad Prism version 6.04 software program, (GraphPad Software, San Diego, Calif., www.graphpad.com), a four parameter curve fit was used to determine the inhibitor IC50s from a plot of the mean reaction velocity versus the inhibitor concentration. Ki values were calculated from the IC50 values using the Cheng and Prusoff equation (Ki=IC50/(1+[S]/Km).

In test [3] the target is T3, HGFA. In words: Fluorescent kinetic enzyme inhibitor assay of HGFA. It counts as biochemical. Particulars: Table 6.1; Fluorogenic Assay; read-out: HGFA Ki. The procedure, abridged:
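Recombinant His-tagged HGFA residues 373-655 from insect cells, with substrate at Km. Inhibitors in 11-point dilutions, 0-20 μM final, 2% DMSO, fluorescence (ex 380/em 460 nm) followed over time at room temperature. IC50 from four-parameter fit of mean velocity, average of three experiments.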

Another test has as its target Trypsin. In words: Trypsin selectivity assay. Particulars: Table 6.2; headed Fluorogenic Assay. The test is classed as biochemical.
The target of the next test is thrombin (Homo sapiens, UniProt P00734). Put plainly: Chromogenic kinetic enzyme assay of thrombin. The test is classed as biochemical. The conditions noted are these: Table 6.2; headed Fluorogenic Assay; read-out: Thrombin Ki. Summed up:
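Recombinant human thrombin (0.15 nM) or Factor Xa (0.35 nM) was mixed with 11-point inhibitor dilutions (0–20 μM, 2% DMSO) in TNC buffer, pH 8. Kinetic absorbance at 405 nm gave velocities. IC50 came from a four-parameter fit and Ki from Cheng–Prusoff.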

pKi: −log10 of the molar value. Residues, ends and D or L forms follow the SMILES beside them. *: point of attachment. AMC = Cc1cc(=O)oc2cc(N*)ccc12; Boc = CC(C)(C)OC(=O)*

Sequence of Factor Xa (P00742 235-488 limits assumed): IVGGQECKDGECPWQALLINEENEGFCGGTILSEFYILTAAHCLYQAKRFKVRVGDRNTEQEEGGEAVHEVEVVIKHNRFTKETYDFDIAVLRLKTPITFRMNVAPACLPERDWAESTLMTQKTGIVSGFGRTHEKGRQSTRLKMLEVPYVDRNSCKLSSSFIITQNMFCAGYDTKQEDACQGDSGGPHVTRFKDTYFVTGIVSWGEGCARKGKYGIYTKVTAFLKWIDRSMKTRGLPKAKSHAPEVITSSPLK
Sequence of Factor Xa (P00742 41-179 partner limits assumed): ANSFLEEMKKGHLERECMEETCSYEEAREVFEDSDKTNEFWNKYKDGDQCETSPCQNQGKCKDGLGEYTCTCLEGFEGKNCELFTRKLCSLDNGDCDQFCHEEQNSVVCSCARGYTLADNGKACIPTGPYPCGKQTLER

As for `Cc1cc(=O)oc2cc(NC(=O)[C@H](CCCNC(=N)N)NC(=O)[C@H](C)NC(=O)[C@H](CCC(N)=O)NC(=O)OC(C)(C)C)ccc12` [Boc-QAR-AMC] (Boc-Gln-Ala-Arg-{AMC}), the Km on matriptase is 93 µM.

Regarding Ac-His(3Bom)-Agp-hLeu-Arg-ACC, at HGFA [1], the Km was 52.1 µM.

Turning to `Cc1cc(=O)oc2cc(NC(=O)[C@H](CCCNC(=N)N)NC(=O)[C@H](CC(C)C)NC(=O)[C@H](CCC(N)=O)NC(=O)OC(C)(C)C)ccc12` [Boc-QLR-AMC] (Boc-Gln-Leu-Arg-{AMC}), the Michaelis-Menten constant (Km) at HGFA [2] came to 37 µM.

Consider `CC(=O)N[C@@H](CCCCN)C(=O)N[C@@H](CCCNC(=N)N)C(=O)N[C@@H](CC(C)C)C(=O)N[C@@H](CCCNC(=N)N)C(=O)c1nc2ccccc2s1` [Compound 7054, Ac-KRLR(SEQ ID NO: 8)-Kbt], for which the “MRC5-mediated migration and invasion” value in the test on MDA-MB-231 cells is given as “abrogate”. Also, the pKi was 7.04 on Factor Xa, 8.22 at HGFA [3], 9.09 at Trypsin and < 4.70 at thrombin.
